Experimental data reported in BindingDB's records for doi:10.1021/cc100076k (Universidade Federal De SaO Carlo, 2010).

These compounds were tested against T1, Cathepsin L2 (Homo sapiens, UniProt O60911) (assay: Inhibition Activity Assay). Details: pH 5.5; 27 °C.
T1 sequence (O60911 whole entry): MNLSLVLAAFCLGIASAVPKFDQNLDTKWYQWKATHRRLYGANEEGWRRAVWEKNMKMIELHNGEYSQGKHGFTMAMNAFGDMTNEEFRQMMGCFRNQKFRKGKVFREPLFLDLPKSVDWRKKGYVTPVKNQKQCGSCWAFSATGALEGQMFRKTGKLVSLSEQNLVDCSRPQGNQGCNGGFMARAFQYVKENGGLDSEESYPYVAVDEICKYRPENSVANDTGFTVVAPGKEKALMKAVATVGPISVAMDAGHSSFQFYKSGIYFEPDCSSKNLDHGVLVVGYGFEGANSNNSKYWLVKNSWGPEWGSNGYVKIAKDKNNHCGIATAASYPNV
Excerpt: Recombinant human cathepsin V was expressed and purified as described previously.

Question: Which IC50 does the source give for `COc1ccc(-c2cc(=O)c3cc(OC)ccc3o2)cc1` [6-methoxy-2-(4-methoxyphenyl)-1-benzopyran-4-one] here?
Answer: Its IC50 is 12 µM.

Question: `COc1ccc(C(=O)/C=C/c2ccc(OC)cc2OC)c(O)c1` [Flavonid, 5a] was tested. Which IC50 did it give?
Answer: Its IC50 is > 50 µM.

Question: For `COc1cccc(Cl)c1/C=C/C(=O)c1ccc(F)cc1O` [Flavonid, 5b], which IC50 is on record?
Answer: Its IC50 is > 50 µM.

Question: For `COc1ccc(-c2cc(=O)c3c(OC)cc(OC)cc3o2)c(OC)c1` [Flavonid, 6[2,2]], which IC50 is on record?
Answer: The IC50 was 19 µM.

Question: `COc1cc(OC)c2c(=O)cc(-c3ccc(OC)c(OC)c3OC)oc2c1` [Flavonid, 6[2,3]] was tested. Which IC50 did it give?
Answer: Its IC50 is > 50 µM.

Question: `COc1cc(OC)c2c(=O)cc(-c3ccc(-c4ccccc4)cc3)oc2c1` [Flavonid, 6[2,6]] was tested. Which IC50 did it give?
Answer: Its IC50 is > 50 µM.

Question: `COc1ccc(-c2cc(=O)c3cc(F)ccc3o2)cc1` [Flavonid, 6[3,1]] was tested. Which IC50 did it give?
Answer: Its IC50 is 0.8 µM.

Question: With `COc1ccc(-c2cc(=O)c3cc(F)ccc3o2)c(OC)c1` [Flavonid, 6[3,2]] as the compound, how does the IC50 read?
Answer: Its IC50 is 1.6 µM.

Question: Which IC50 does the source give for `COc1ccc(-c2cc(=O)c3cc(F)ccc3o2)c(OC)c1OC` [Flavonid, 6[3,3]] here?
Answer: The IC50 was 4.1 µM.

Question: Which IC50 does the source give for `O=c1cc(-c2ccc(-c3ccccc3)cc2)oc2ccc(F)cc12` [Flavonid, 6[3,6]] here?
Answer: Its IC50 is 2.9 µM.

Question: For `COc1ccc(-c2cc(=O)c3cc(OC)ccc3o2)c(OC)c1` [Flavonid, 6[4,2]], which IC50 is on record?
Answer: Its IC50 is > 50 µM.

Question: For `COc1ccc2oc(-c3ccc(OC)c(OC)c3OC)cc(=O)c2c1` [Flavonid, 6[4,3]], which IC50 is on record?
Answer: The IC50 was > 50 µM.

Question: With `COc1ccc2oc(-c3ccc(-c4ccccc4)cc3)cc(=O)c2c1` [Flavonid, 6[4,6]] as the compound, how does the IC50 read?
Answer: The IC50 was 19.2 µM.

Question: Which IC50 does the source give for `COc1cccc(Cl)c1-c1cc(=O)c2ccc(F)cc2o1` [Flavonid, 6b] here?
Answer: The IC50 was > 50 µM.

Question: How did the IC50 turn out when `COc1ccc(-c2cc(=O)c3cc(Br)ccc3o2)c(OC)c1` [Flavonid, 6d] was run?
Answer: The IC50 was 1.2 µM.

Question: `O=c1cc(-c2c(F)cccc2Cl)oc2cc(F)ccc12` [Flavonid, 6e] was tested. Which IC50 did it give?
Answer: The IC50 was > 50 µM.
